{"source": "ChEMBL document CHEMBL4808247", "about": "(Bioorg Med Chem, 2021)", "type_in_all_cases": "functional", "key": {"Enterobacter cloacae [1]": {"tested_on": "Enterobacter cloacae", "experiment": "Antibacterial activity against Enterobacter cloacae SR36276 producing class C beta-lactamase, AmpC assessed as reduction in microbial growth incubated for 16 to 20 hrs by broth microdilution method", "conditions": "time 16-20 hrs"}, "Klebsiella pneumoniae [2]": {"tested_on": "Klebsiella pneumoniae", "experiment": "Antibacterial activity against Klebsiella pneumoniae PLE producing class D beta-lactamase, OXA-48 assessed as reduction in microbial growth incubated for 16 to 20 hrs by broth microdilution method", "conditions": "time 16-20 hrs"}, "Enterobacter cloacae [3]": {"tested_on": "Enterobacter cloacae", "experiment": "Antibacterial activity against Enterobacter cloacae IR32 producing class B beta-lactamase, NDM1 assessed as reduction in microbial growth incubated for 16 to 20 hrs by broth microdilution method", "conditions": "time 16-20 hrs"}, "Escherichia coli [4]": {"tested_on": "Escherichia coli", "experiment": "Antibacterial activity against Escherichia coli NIHJ JC-2 assessed as reduction in microbial growth incubated for 16 to 20 hrs by broth microdilution method", "conditions": "time 16-20 hrs"}, "Klebsiella pneumoniae [5]": {"tested_on": "Klebsiella pneumoniae", "experiment": "Antibacterial activity against Klebsiella pneumoniae JMI:211 producing class A beta-lactamase, KPC-2 assessed as reduction in microbial growth incubated for 16 to 20 hrs by broth microdilution method", "conditions": "time 16-20 hrs"}, "Escherichia coli [6]": {"tested_on": "Escherichia coli", "experiment": "Antibacterial activity against Escherichia coli SR34100 producing class A beta-lactamase, CTX-M-15 assessed as reduction in microbial growth incubated for 16 to 20 hrs by broth microdilution method", "conditions": "time 16-20 hrs"}, "[7]": {"experiment": "Ratio of MIC for antibacterial activity against Escherichia coli BL21(DE3) transfected with pET9a vector harboring class C beta lactamase AmpC to MIC for antibacterial activity against Escherichia coli BL21(DE3)"}, "Escherichia coli [8]": {"tested_on": "Escherichia coli", "experiment": "Antibacterial activity against Escherichia coli BL21(DE3) transfected with pET9a vector harboring class A beta lactamase, CTX-M-15 incubated for 16 to 20 hrs by broth microdilution method", "conditions": "time 16-20 hrs"}, "Escherichia coli [9]": {"tested_on": "Escherichia coli", "experiment": "Antibacterial activity against Escherichia coli BL21(DE3) transfected with pET9a vector harboring class D beta lactamase, OXA-48 incubated for 16 to 20 hrs by broth microdilution method", "conditions": "time 16-20 hrs"}, "Escherichia coli [10]": {"tested_on": "Escherichia coli", "experiment": "Antibacterial activity against Escherichia coli BL21(DE3) transfected with pET9a empty vector incubated for 16 to 20 hrs by broth microdilution method", "conditions": "time 16-20 hrs"}, "[11]": {"experiment": "Ratio of MIC for antibacterial activity against Escherichia coli BL21(DE3) transfected with pET9a vector harboring class B beta lactamase NDM-1 to MIC for antibacterial activity against Escherichia coli BL21(DE3)"}, "Escherichia coli [12]": {"tested_on": "Escherichia coli", "experiment": "Antibacterial activity against Escherichia coli BL21(DE3) transfected with pET9a vector harboring class B beta lactamase, NDM-1 incubated for 16 to 20 hrs by broth microdilution method", "conditions": "time 16-20 hrs"}, "Escherichia coli [13]": {"tested_on": "Escherichia coli", "experiment": "Antibacterial activity against Escherichia coli BL21(DE3) transfected with pET9a vector harboring class C beta lactamase, AmpC incubated for 16 to 20 hrs by broth microdilution method", "conditions": "time 16-20 hrs"}, "Enterobacterales [14]": {"tested_on": "Enterobacterales", "experiment": "Antimicrobial activity against Enterobacterales producing KPC assessed as reduction in microbial growth measured after 16 to 20 hrs in presence of avibactam by broth microdilution method", "conditions": "time 16-20 hrs"}, "Enterobacterales [15]": {"tested_on": "Enterobacterales", "experiment": "Antimicrobial activity against Enterobacterales producing VIM assessed as reduction in microbial growth measured after 16 to 20 hrs in presence of avibactam by broth microdilution method", "conditions": "time 16-20 hrs"}, "Escherichia coli [16]": {"tested_on": "Escherichia coli", "experiment": "Antibacterial activity against Escherichia coli NIHJ JC-2 strain assessed as reduction in microbial growth incubated for 16 to 20 hrs in presence of avibactam by broth microdilution method", "conditions": "time 16-20 hrs"}, "Enterobacterales [17]": {"tested_on": "Enterobacterales", "experiment": "Antimicrobial activity against Enterobacterales producing OXA-48 assessed as reduction in microbial growth measured after 16 to 20 hrs in presence of avibactam by broth microdilution method", "conditions": "time 16-20 hrs"}, "Enterobacterales [18]": {"tested_on": "Enterobacterales", "experiment": "Antimicrobial activity against Enterobacterales producing NDM assessed as reduction in microbial growth measured after 16 to 20 hrs in presence of avibactam by broth microdilution method", "conditions": "time 16-20 hrs"}}}
{"smiles": "Nc1nc(/C(=N/OCC(=O)O)C(=O)N[C@@H]2C(=O)N3[C@@H]2SC[C@@H]2CC(=O)O[C@@]23C(=O)O)ns1", "values": [{"measurement": "MIC", "setting": "Enterobacter cloacae [1]", "value": 4, "unit": "µg/mL"}, {"measurement": "MIC", "setting": "Klebsiella pneumoniae [2]", "value": 1, "unit": "µg/mL"}, {"measurement": "MIC", "setting": "Enterobacter cloacae [3]", "value": 0.5, "unit": "µg/mL"}, {"measurement": "MIC", "setting": "Escherichia coli [4]", "value": 0.125, "unit": "µg/mL"}, {"measurement": "MIC", "setting": "Klebsiella pneumoniae [5]", "value": 0.125, "unit": "µg/mL"}, {"measurement": "MIC", "setting": "Escherichia coli [6]", "value": 0.25, "unit": "µg/mL"}]}
{"smiles": "CC(C)(O/N=C(\\C(=O)N[C@H]1CON(C2(C(=O)O)CCC(=O)O2)C1=O)c1csc(N)n1)C(=O)O", "note": "(stereo in doubt)", "values": [{"measurement": "Ratio", "setting": "[7]", "value": 32}, {"measurement": "MIC", "setting": "Escherichia coli [8]", "value": 0.063, "unit": "µg/mL"}, {"measurement": "MIC", "setting": "Escherichia coli [9]", "value": 0.063, "unit": "µg/mL"}, {"measurement": "MIC", "setting": "Escherichia coli [10]", "value": 0.063, "unit": "µg/mL"}, {"measurement": "MIC", "setting": "Enterobacter cloacae [1]", "value": "> 32", "unit": "µg/mL"}, {"measurement": "MIC", "setting": "Klebsiella pneumoniae [2]", "value": 1, "unit": "µg/mL"}, {"measurement": "MIC", "setting": "Enterobacter cloacae [3]", "value": 1, "unit": "µg/mL"}, {"measurement": "Ratio", "setting": "[11]", "value": 4}, {"measurement": "MIC", "setting": "Escherichia coli [12]", "value": 0.25, "unit": "µg/mL"}, {"measurement": "MIC", "setting": "Escherichia coli [4]", "value": 0.25, "unit": "µg/mL"}, {"measurement": "MIC", "setting": "Escherichia coli [13]", "value": 2, "unit": "µg/mL"}, {"measurement": "MIC", "setting": "Escherichia coli [6]", "value": 4, "unit": "µg/mL"}]}
{"smiles": "CCO/N=C(\\C(=O)N[C@@H]1C(=O)N2[C@@H]1[S@@+]([O-])C[C@@H]1CC(=O)O[C@@]12C(=O)O)c1csc(N)n1", "note": "(stereo in doubt)", "values": [{"measurement": "MIC", "setting": "Enterobacter cloacae [1]", "value": 1, "unit": "µg/mL"}, {"measurement": "MIC", "setting": "Klebsiella pneumoniae [2]", "value": 4, "unit": "µg/mL"}, {"measurement": "MIC", "setting": "Enterobacter cloacae [3]", "value": 0.5, "unit": "µg/mL"}, {"measurement": "MIC", "setting": "Escherichia coli [4]", "value": 0.25, "unit": "µg/mL"}, {"measurement": "MIC", "setting": "Klebsiella pneumoniae [5]", "value": 0.5, "unit": "µg/mL"}, {"measurement": "MIC", "setting": "Escherichia coli [6]", "value": 0.5, "unit": "µg/mL"}]}
{"smiles": "C[C@@H](O/N=C(\\C(=O)N[C@@H]1C(=O)N2[C@@H]1[S@@+]([O-])C[C@@H]1CC(=O)O[C@@]12C(=O)O)c1csc(N)n1)C(=O)O", "note": "(stereo in doubt)", "values": [{"measurement": "MIC", "setting": "Enterobacter cloacae [1]", "value": 0.25, "unit": "µg/mL"}, {"measurement": "MIC", "setting": "Klebsiella pneumoniae [2]", "value": 0.5, "unit": "µg/mL"}, {"measurement": "MIC", "setting": "Enterobacter cloacae [3]", "value": 0.125, "unit": "µg/mL"}, {"measurement": "MIC", "setting": "Escherichia coli [4]", "value": 0.125, "unit": "µg/mL"}, {"measurement": "MIC", "setting": "Klebsiella pneumoniae [5]", "value": 0.25, "unit": "µg/mL"}, {"measurement": "MIC", "setting": "Escherichia coli [6]", "value": 0.5, "unit": "µg/mL"}]}
{"smiles": "C[C@H](O/N=C(\\C(=O)N[C@@H]1C(=O)N2[C@@H]1[S@@+]([O-])C[C@@H]1CC(=O)O[C@@]12C(=O)O)c1csc(N)n1)C(=O)O", "note": "(stereo in doubt)", "values": [{"measurement": "MIC", "setting": "Enterobacter cloacae [1]", "value": 0.25, "unit": "µg/mL"}, {"measurement": "MIC", "setting": "Klebsiella pneumoniae [2]", "value": 1, "unit": "µg/mL"}, {"measurement": "MIC", "setting": "Enterobacter cloacae [3]", "value": 0.5, "unit": "µg/mL"}, {"measurement": "MIC", "setting": "Escherichia coli [4]", "value": 0.25, "unit": "µg/mL"}, {"measurement": "MIC", "setting": "Klebsiella pneumoniae [5]", "value": 0.5, "unit": "µg/mL"}, {"measurement": "MIC", "setting": "Escherichia coli [6]", "value": 1, "unit": "µg/mL"}]}
{"smiles": "C[C@H]1[C@H](NC(=O)/C(=N\\OC(C)(C)C(=O)O)c2csc(N)n2)C(=O)N1S(=O)(=O)O", "note": "(stereo in doubt) [AZTREONAM]", "values": [{"measurement": "MIC50", "setting": "Enterobacterales [14]", "value": 0.5, "unit": "µg/mL"}, {"measurement": "MIC90", "setting": "Enterobacterales [14]", "value": 1, "unit": "µg/mL"}, {"measurement": "MIC50", "setting": "Enterobacterales [15]", "value": 0.25, "unit": "µg/mL"}, {"measurement": "MIC90", "setting": "Enterobacterales [15]", "value": 2, "unit": "µg/mL"}, {"measurement": "MIC", "setting": "Escherichia coli [16]", "value": 0.125, "unit": "µg/mL"}, {"measurement": "MIC50", "setting": "Enterobacterales [17]", "value": 0.063, "unit": "µg/mL"}, {"measurement": "MIC90", "setting": "Enterobacterales [17]", "value": 0.25, "unit": "µg/mL"}, {"measurement": "MIC50", "setting": "Enterobacterales [18]", "value": 0.25, "unit": "µg/mL"}, {"measurement": "MIC90", "setting": "Enterobacterales [18]", "value": 1, "unit": "µg/mL"}]}
{"smiles": "Nc1nc(/C(=N/OCC(=O)O)C(=O)N[C@@H]2C(=O)N3[C@@H]2S(=O)(=O)C[C@@H]2CC(=O)O[C@@]23C(=O)O)cs1", "note": "(stereo in doubt)", "values": [{"measurement": "MIC", "setting": "Enterobacter cloacae [1]", "value": 1, "unit": "µg/mL"}, {"measurement": "MIC", "setting": "Klebsiella pneumoniae [2]", "value": 0.5, "unit": "µg/mL"}, {"measurement": "MIC", "setting": "Enterobacter cloacae [3]", "value": 0.25, "unit": "µg/mL"}, {"measurement": "MIC", "setting": "Escherichia coli [4]", "value": 0.25, "unit": "µg/mL"}, {"measurement": "MIC", "setting": "Klebsiella pneumoniae [5]", "value": 0.5, "unit": "µg/mL"}, {"measurement": "MIC", "setting": "Escherichia coli [6]", "value": 1, "unit": "µg/mL"}]}
{"smiles": "Nc1nc(/C(=N/OCC(=O)O)C(=O)N[C@@H]2C(=O)N3[C@@H]2[S@@+]([O-])C[C@@H]2CC(=O)O[C@@]23C(=O)O)ns1", "values": [{"measurement": "MIC", "setting": "Enterobacter cloacae [1]", "value": 1, "unit": "µg/mL"}, {"measurement": "MIC", "setting": "Klebsiella pneumoniae [2]", "value": 4, "unit": "µg/mL"}, {"measurement": "MIC", "setting": "Enterobacter cloacae [3]", "value": 2, "unit": "µg/mL"}, {"measurement": "MIC", "setting": "Escherichia coli [4]", "value": 1, "unit": "µg/mL"}, {"measurement": "MIC", "setting": "Klebsiella pneumoniae [5]", "value": 1, "unit": "µg/mL"}, {"measurement": "MIC", "setting": "Escherichia coli [6]", "value": 8, "unit": "µg/mL"}]}
